Results on one molecule are retold here after publication PMC10533401, “Development of two mouse strains conditionally expressing bright luciferases with distinct emission spectra as new tools for in vivo imaging” (Lab Animal, 2023).

The assay concerns T1, oFluc.
T1 construct: gene firefly luciferase; not fused to Venus
Description: luminescence intensity, luminometer, Michaelis-Menten fit. The assay is classed as biochemical, Pyrocoelia matsumurai. As to conditions: 0.1 M citric acid/0.1 M Na2HPO4 pH 7.0, 1 mM ATP, 2 mM MgSO4, D-luciferin 0-990 µM; partially purified enzyme. As for the experimental part:
luminescence intensity, luminometer, Michaelis-Menten fit on oFluc | Km for oFluc or Venus/Akaluc for D-luciferin or AkaLumine were determined

Molecules are shown by their SMILES.

As usually defined, the Km is the concentration of substrate that gives half-maximal velocity.

`O=C(O)[C@H]1CSC(c2nc3ccc(O)cc3s2)=N1` [D-luciferin]: the Km was 31.9 µM.
